Values quoted from earlier work, collected in patent US20090054305A1, “Mixtures of Amylin and Insulin” (Novo Nordisk A/S, priority 2006, published 2009).
Ends that are not written are not given here.

Assays:
[1] = treated test animals, e.g. provoking marked hyperlactemia followed by hyperglycemia
[2] = compared to human amylin

Substance | amylin activity in vivo [1] | solubility and stability characteristics [2]
^18Arg^25, 28Pro-h-amylin | amylin activity in vivo | more desirable solubility and stability characteristics
^25Pro^26Val^28, 29Pro-h-amylin | – | more desirable solubility and stability characteristics
^28Pro-h-amylin | amylin activity in vivo | –
des-^1Lys-h-amylin (CNTATCATQRLANFLVHSSNNFGAILSSTNVGSNTY; not fully specified (C-terminus, bridges); ends and bridges not checked; UniProt P10997 34-70, looked up, variant K1*) [human amylin analog where the lysine in position 1 is lacking] | amylin activity in vivo | –
des-^1Lys^18Arg^25, 28Pro-h-amylin | amylin activity in vivo | –
